From patent publication US20260158102A1, “CYCLIC PEPTIDE DERIVATIVE COMPOSITION FOR TREATING OR PREVENTING NEUROPATHIC PAIN AND/OR INFLAMMATORY PAIN” (DKS Co. Ltd., priority 2022, published 2026)

Tested on: rat carrageenan-induced paw edema model
Experiment: Mechanical hyperalgesia (Randall-Selitto pain threshold) in rat carrageenan-induced paw edema model
Format: in vivo
Settings: for Pain threshold (mmHg) 2 hour: 2 hours after carrageenan inflammation, control 31.6 ± 1.4
Procedure: On the day before the administration of the phlogistic agent, the pain threshold of each individual by the Randall-Selitto method was measured using an Analgesy meter.
On the day before the use of the phlogistic agent, a required amount of carrageenan (Tokyo Chemical Industry Co., Ltd.) was weighed, ground using an agate mortar and pestle, and suspended while adding physiological saline little by little, thereby preparing a 1 w/v % carrageenan physiological saline solution. After preparation, the solution was stored in a refrigerator and used the next day.
The test substance was intravenously administered, and after 5 minutes, 0.1 mL of a phlogistic agent (1 w/v % carrageenan physiological saline solution) was subcutaneously administered to the right hind paw of the animal to induce inflammation.
2, 3, 4, and 5 hours after inflammation, the pain threshold was measured by the Randall-Selitto method using an Analgesy meter.
Dunnett's multiple comparison test was performed between the control group and the test substance group at each measurement time point.

## CC[C@@]1(C)Oc2cc(ccc2O)C[C@H](N(C)C)C(=O)N[C@@H](C(C)C)C(=O)N[C@@H]1C(=O)N[C@@H](CCC(=O)O)C(=O)O [Compound 23]
1 mg/kg i.v., mean ± SE, N=7
  Pain threshold (mmHg) 2 hour: 31.6 ± 2.2 mmHg
1 mg/kg i.v., 4 hours after carrageenan inflammation, mean ± SE, N=7, control 30.3 ± 0.7
  Pain threshold (mmHg) 4 hour: 34.0 ± 1.3 mmHg
1 mg/kg i.v., 5 hours after carrageenan inflammation, mean ± SE, N=7, control 28.3 ± 1.9
  Pain threshold (mmHg) 5 hour: 30.1 ± 1.0 mmHg
5 mg/kg i.v., mean ± SE, N=7
  Pain threshold (mmHg) 2 hour: 34.9 ± 1.7 mmHg
25 mg/kg i.v., mean ± SE, N=7
  Pain threshold (mmHg) 2 hour: 36.7 ± 2.4 mmHg
Rat carrageenan-induced paw edema model, i.v. 1-25 mg/kg, overall conclusion
  Effect on inflammatory pain (pain threshold by the Randall-Selitto method): suppressing effect on inflammatory pain
